From patent US11214803B2, “Modulators of YAP1 expression” (Ionis Pharmaceuticals, Inc., priority 2019, dated 2022) come the findings set out here.

Marks after values point to notes of the source that are not given here. Strand notation (5' to 3'): a small letter for the sugar, then the base; units joined by * are phosphorothioate-linked, units joined directly phosphodiester-linked; [ ] holds rarer units or linkages, { } end groups; capitals alone tell only the bases. k = constrained ethyl (cEt); [5mC] = 5-methylcytosine; d = 2'-deoxy (DNA)

In one data set the test system is NCI H292 cells. Nature of the data set: Cell proliferation assay in NCI H292 cells, CellTiter-Glo (Example 32). The format is cell-based, human. To be noted: free uptake, approximately 144 hours. As for the experimental part:
Modified oligonucleotides described in the studies above were tested at various doses in mucoepidermoid pulmonary carcinoma cell line […]. A control oligonucleotide 792169 was also tested.
Cultured NCI H292 cells at a density of 1000 cells/well were treated using free uptake with modified oligonucleotides diluted to concentrations described in the tables below. After approximately 144 hours, cell proliferation was measured using the luminescent cell viability CellTiter-Glo® 2.0 Assay (Promega). Results are presented in the tables below as percent control of the amount of luminescence in samples treated with modified oligonucleotides relative to untreated control cells (% UTC).
For orientation: ATP-based viability assays read luminescence as a measure of living cells.

In a further data set the test system is CAL27 cells. Nature of the data set: Cell proliferation assay in CAL27 cells, CellTiter-Glo (Example 37). The format is cell-based, human. To be noted: free uptake, approximately 144 hours. As to the method:
Modified oligonucleotides described in the studies above were tested at various doses in tongue squamous cell carcinoma line CAL27. A control oligonucleotide 792169, described herein above, was also tested.
Cultured CAL27 cells at a density of 1000 cells/well were treated using free uptake with modified oligonucleotides diluted to concentrations described in the tables below. After approximately 144 hours, cell proliferation was measured using the luminescent cell viability CellTiter-Glo® 2.0 Assay (Promega). Results are presented in the tables below as percent control of the amount of luminescence in samples treated with modified oligonucleotides relative to untreated control cells (% UTC).

Another data set deals with Detroit-562 cells. Briefly: Cell proliferation assay in Detroit-562 cells, CellTiter-Glo (Example 38). The format is cell-based, human. To be noted: free uptake, approximately 144 hours. As for the experimental part: Modified oligonucleotides described in the studies above were tested at various doses in pharynx carcinoma cell line Detroit-562. A control oligonucleotide 792169, described herein above, was also tested.
Cultured Detroit-562 cells at a density of 1000 cells/well were treated using free uptake with modified oligonucleotides diluted to concentrations described in the tables below. After approximately 144 hours, cell proliferation was measured using the luminescent cell viability CellTiter-Glo® 2.0 Assay (Promega). Results are presented in the tables below as percent control of the amount of luminescence in samples treated with modified oligonucleotides relative to untreated control cells (% UTC).

For data set [1], the system named is Yap1 mRNA. Briefly: Yap1 mRNA in SNU-1214 cells, RNA analysis (Example 46). Format: cell-based, human. The settings on record: free uptake, approximately 48 hours. As for the experimental part:
Modified oligonucleotides described in the studies above were tested at various doses in laryngeal squamous cell carcinoma cell line […]. A control oligonucleotide 792169, described herein above, was also tested.
Cultured SNU-1214 cells at a density of 5000 cells per well were treated using free uptake with modified oligonucleotides diluted to concentrations described in the tables below. After approximately 48 hours, Yap1 mRNA levels were measured as previously described using the Human Yap1 primer-probe set RTS4814. Yap1 mRNA levels were normalized to actin-beta content, as measured by primer probe set RTS5002. Results are presented in the tables below as percent control of the amount of Yap1 mRNA relative to untreated control cells (% UTC).

For data set [2] the following is noted: rat, in vivo, sc, 50 mg/kg.
Procedure: Male Sprague-Dawley rats were maintained on a 12-hour light/dark cycle and fed ad libitum with Purina normal rat chow. Groups of 4 Sprague-Dawley rats each were weekly injected subcutaneously with 50 mg/kg of Ionis oligonucleotide for 6 weeks (total 7 doses). Forty-eight hours after the last dose, the rats were euthanized; and organs, urine and plasma were harvested for further analysis.
To evaluate the effect of Ionis oligonucleotides on kidney function, urinary levels of total protein and creatinine were measured using an automated clinical chemistry analyzer (Hitachi Olympus AU400c, Melville, N.Y.).
Data set [3] in a line: Tolerability in CD-1 mice, plasma chemistry markers (Example 18). To be noted: male CD-1 mice, 50 mg/kg s.c. twice a week (total of 9 treatments), day 34. Format: in vivo. As to the method: CD-1 mice were treated with modified oligonucleotides selected from studies described above and evaluated for changes in the levels of various plasma chemistry markers.
Groups of four male CD-1 mice at 5-6 weeks of age (obtained from Charles River) were injected subcutaneously twice a week for four weeks (for a total of 9 treatments) with 50 mg/kg of modified oligonucleotides. One group of male CD-1 mice was injected with PBS. Mice were euthanized on day 34 post start of treatment (24 hours following the final administration).

For data set [4], the system named is Yap1 mRNA. Briefly: Antisense inhibition of human Yap1 in A-431 cells by cEt gapmers, single dose (Example 2, RTS4814). Format: cell-based. In a few lines:
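Free uptake, 2,000 nM, ~48 h, A-431 at 5,000 cells/well. Readout: RT-qPCR (RTS4814), RIBOGREEN-normalized, % UTC. 16-mer 3-10-3 cEt gapmers, full PS backbone, all C as 5-methylcytosine.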

With “715487 (kA*kT*kT*dA*d[5mC]*dT*dT*d[5mC]*dA*dT*dA*dG*d[5mC]*kT*kT*kA) [compound 715487]”, the “Antiproliferative effect (cell proliferation, luminescence)” value (shortened to “Antiproliferative effect”) in the data set on NCI H292 cells (0.04 μM) is 87 % UTC; in the data set on NCI H292 cells (0.2 μM), 90 % UTC; in the data set with NCI H292 cells (1 μM), 69 % UTC; with NCI H292 cells (5 μM) it was 20 % UTC; in the data set on CAL27 cells (0.08 μM), 95 % UTC; in the data set with CAL27 cells (0.4 μM), 85 % UTC. For the same substance, the “Antiproliferative effect” value in the data set with CAL27 cells (2 μM) turned out to be 67 % UTC; with CAL27 cells (10 μM) it was 33 % UTC; in the data set on Detroit-562 cells (0.04 μM) it was 92 % UTC; with Detroit-562 cells (0.2 μM), 84 % UTC; in the data set on Detroit-562 cells (1 μM), 71 % UTC; in the data set with Detroit-562 cells (5 μM) it was 52 % UTC. For the same substance, the “human Yap1 mRNA expression” value in the data set with Yap1 mRNA [1] (0.04 μM) was 71 % UTC; with Yap1 mRNA [1] (0.2 μM), 36 % UTC; with Yap1 mRNA [1] (1 μM), 16 % UTC; with Yap1 mRNA [1] (5 μM), 9 % UTC.

Regarding “1198439 (AGTGTATGTCAGAAGA; sugar, 5-methylcytosine, phosphorothioate modifications, further chemistry not given here) [compound 1198439]”, in data set [2], the “URINE P/C ratio (total protein to creatinine ratio)” value is 8*.

Take “1076453 (GTAATATTGCAATCTG; 3-10-3 cEt gapmer, further chemistry not given here) [compound 1076453]”: in data set [3], the ALT stood at 56 U/L, the AST is listed as 113 U/L, the BUN was found to be 20 mg/dL and the TBIL was determined as 0.24 mg/dL.

Turning to “1198440 (AAGTGTATGTCAGAAG; cEt, 2'-MOE, 5-methylcytosine, phosphorothioate modifications, further chemistry not given here) [compound 1198440]”, the “Antiproliferative effect” value in the data set with NCI H292 cells (0.04 μM) is reported as 100 % UTC; in the data set on NCI H292 cells (0.2 μM), 83 % UTC; in the data set on NCI H292 cells (1 μM) it was 30 % UTC; with NCI H292 cells (5 μM), 15 % UTC; with CAL27 cells (0.08 μM), 86 % UTC; in the data set on CAL27 cells (0.4 μM) it was 85 % UTC. In addition, the “Antiproliferative effect” value is given as 83 % UTC with CAL27 cells (2 μM); 51 % UTC in the data set on CAL27 cells (10 μM); 84 % UTC in the data set with Detroit-562 cells (0.04 μM); 67 % UTC with Detroit-562 cells (0.2 μM); 59 % UTC in the data set on Detroit-562 cells (1 μM); 45 % UTC in the data set on Detroit-562 cells (5 μM). Besides, the “human Yap1 mRNA expression” value with Yap1 mRNA [1] (0.04 μM) was determined as 40 % UTC; in the data set on Yap1 mRNA [1] (0.2 μM), 11 % UTC; in the data set on Yap1 mRNA [1] (1 μM), 4 % UTC; in the data set with Yap1 mRNA [1] (5 μM), 3 % UTC. The “URINE P/C ratio (total protein to creatinine ratio)” value in data set [2] is 9.

As to “958499 (kA*kT*kT*dA*dG*dA*dG*dT*dA*dT*dG*dT*dG*kG*k[5mC]*kA) [Compound 958499]”, the “YAP1 (% UTC)” value in the data set with Yap1 mRNA [4] (Table 18, A-431 cells, 5,000 cells per well, free uptake, 2,000 nM modified oligonucleotide, approx. 48 hours, RTS4814, normalized to RIBOGREEN, Yap1 mRNA as percent of untreated control) is 1 % UTC; in the data set with Yap1 mRNA [4] (Table 19, A-431 cells, 5,000 cells per well, free uptake, 2,000 nM modified oligonucleotide, approx. 48 hours, RTS4814, normalized to RIBOGREEN, Yap1 mRNA as percent of untreated control), 2 % UTC; in the data set on Yap1 mRNA [4] (Table 20, Yap1 mRNA, percent of untreated control, 3-10-3 cEt gapmers targeting SEQ ID NO.: 1 and 2) it was 1 % UTC; in the data set with Yap1 mRNA [4] (Table 21, Yap1 mRNA, percent of untreated control, 3-10-3 cEt gapmers targeting SEQ ID NO.: 1 and 2), 1 % UTC; with Yap1 mRNA [4] (Table 22, Yap1 mRNA as percent of untreated control, 3-10-3 cEt gapmers, single dose) it was 1 % UTC; in the data set with Yap1 mRNA [4] (Table 23, Yap1 mRNA as percent of untreated control, 3-10-3 cEt gapmers, single dose) it was 2 % UTC. Also, the “YAP1 (% UTC)” value in the data set with Yap1 mRNA [4] (Table 24, Yap1 mRNA as percent of untreated control, 3-10-3 cEt gapmers targeting SEQ ID NO.: 1, and 2) amounted to 2 % UTC; in the data set with Yap1 mRNA [4] (Table 25, Yap1 mRNA as percent of untreated control, 3-10-3 cEt gapmers targeting SEQ ID NO.: 1, and 2), 1 % UTC.

For the substance “CGCCGATAAGGTACAC (cEt gapmer, phosphorothioate backbone, further chemistry not given here) [ION 792169, reference compound]”, the “Antiproliferative effect” value in the data set with NCI H292 cells (0.04 μM) is 98 % UTC; with NCI H292 cells (0.2 μM), 97 % UTC; in the data set with NCI H292 cells (1 μM), 99 % UTC; in the data set on NCI H292 cells (5 μM) it was 92 % UTC; in the data set with CAL27 cells (0.08 μM) it was 96 % UTC; in the data set with CAL27 cells (0.4 μM), 102 % UTC. The “Antiproliferative effect” value was 103 % UTC in the data set with CAL27 cells (2 μM); 90 % UTC in the data set on CAL27 cells (10 μM); 99 % UTC with Detroit-562 cells (0.04 μM); 106 % UTC in the data set with Detroit-562 cells (0.2 μM); 100 % UTC in the data set with Detroit-562 cells (1 μM); 79 % UTC in the data set on Detroit-562 cells (5 μM). Besides, the “human Yap1 mRNA expression” value with Yap1 mRNA [1] (0.04 μM) was 97 % UTC; in the data set on Yap1 mRNA [1] (0.2 μM), 104 % UTC; with Yap1 mRNA [1] (1 μM), 106 % UTC; with Yap1 mRNA [1] (5 μM) it was 109 % UTC.

As to “958499 (ATTAGAGTATGTGGCA; 3-10-3 cEt gapmer, further chemistry not given here) [compound 958499]”, in the data set on Yap1 mRNA [4] (Table 32, Yap1 mRNA, percent of untreated control, 3-10-3 cEt gapmers targeting SEQ ID NO.: 1, and 2), the “YAP1 (% UTC)” value was 2 % UTC. The “YAP1 (% UTC)” value with Yap1 mRNA [4] (Table 33, Yap1 mRNA, percent of untreated control, 3-10-3 cEt gapmers targeting SEQ ID NO.: 1, and 2) was determined as 4 % UTC. Also, in the data set with Yap1 mRNA [4] (Yap1 mRNA as percent of untreated control, A-431 cells, 3-10-3 cEt gapmers targeting SEQ ID NO.: 1, and 2, Table 30), the “YAP1 (% UTC)” value was 1 % UTC. The “YAP1 (% UTC)” value in the data set with Yap1 mRNA [4] (Yap1 mRNA as percent of untreated control, A-431 cells, 3-10-3 cEt gapmers targeting SEQ ID NO.: 1, and 2, Table 31) was determined as 1 % UTC. Further, in data set [3], the ALT worked out at 79 U/L, the AST stood at 88 U/L, the BUN is listed as 24 mg/dL and the TBIL was determined as 0.18 mg/dL.
